# Results reported in PMC10899606, “Thwarting resistance: MgrA inhibition with methylophiopogonanone a unveils a new battlefront against S. aureus” (NPJ Biofilms and Microbiomes, 2024).
# How the values were obtained:
# [1] = target: T1, MgrA (Staphylococcus aureus, UniProt P0C1S0); assay: fluorescence anisotropy, inhibition of MgrA binding to DNA probe; format: biochemical
# T1 construct: homodimer in nature
# [2] = target: T1, MgrA; assay: intrinsic fluorescence quenching (ex […] nm), Stern-Volmer, linear regression; format: binding; settings: PBS, MgrA 2 nM; static quenching
# [3] = target: T1, MgrA; assay: thermal shift assay (Sypro Orange); format: binding; settings: Tm is lowered by the compound; MgrA to Mo-A 1:10 molar ratio, 10 mM Tris, 150 mM NaCl, pH 7.5
# T1 sequence (P0C1S0 2-147): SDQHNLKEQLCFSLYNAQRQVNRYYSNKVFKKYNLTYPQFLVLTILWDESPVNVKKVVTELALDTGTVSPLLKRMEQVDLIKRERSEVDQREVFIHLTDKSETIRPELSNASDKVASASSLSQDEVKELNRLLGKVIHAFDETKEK
smiles,measurement,setting,value
Cc1c(O)c(C)c2c(c1O)C(=O)[C@H](Cc1ccc3c(c1)OCO3)CO2 [methylophiopogonanone A],IC50,[1],95.9 µM
same,KA,[2],62500 L/mol
same,∆Tm (decrease),[3],> 3 °C
